In one assay the target is CDK2/Cyclin E2 (Homo sapiens, UniProt P24941). The assay can be described thus: CDK2/CyclinE2 enzymatic activity assay (TR-FRET). Conditions: ATP 1 mM final, read-out: CDK2_E1 IC50. It counts as biochemical. How it is done: CDK2/CyclinE2 Enzymatic Activity Assay
(§1) The inhibitory activity of compounds was evaluated in vitro using TR-FRET assay with white 384-well low volume microplate (Greiner Bio-One). CDK2/Cyclin E2 catalyzed phosphorylation of peptide in the presence and absence of compounds was measured and used in IC50 determination. Recombinant protein complex CDK2/Cyclin E2, expressed from insect cell, was purchased from ProQinase. Testing compounds were dissolved in DMSO at 1 mM and tested in 9-dose IC50 mode. The reaction mixture was prepared by mixing CDK2/CyclinE2 (1 nM final), ULight-4E-BP1 (50 nM final, Perkinelmer, TRF0128-D), and ATP (1 mM final) in assay buffer (20 mM of HEPES pH 7.4, 1 mM of EGTA, 0.05% BSA, 0.005% Tween 20, and 1 mM TCEP). The compound of interest in DMSO was added to each well in 3-fold serial dilution by dispenser (TECAN D300E) to make a 9.9 μL of reaction mixture. After 20 minutes preincubation at room temperature, 0.1 μL MgCl2 (10 mM final) was added to initiate the reaction. Following a 45 minute incubation at 37° C., the reaction was stopped by addition of 2 μL of quenching buffer consisting of Lance detection buffer (Perkinelmer CR97-100C), LANCE Ultra Europium-anti-P-4E-BP1 (Perkinelmer, TRF0216-D), EDTA, and incubate at room temperature for an additional 60 minutes in the dark. The reaction signal was measured by Envision multimode plate reader (PerkinElmer, 2102-0010). IC50 values were determined by fitting the data to the standard 4 parameters with Hill Slope using GraphPad Prism software.

Another assay concerns the target T1, CDK4/Cyclin D1 (Homo sapiens, UniProt P11802).
T1 construct: purchased ProQinase; host or cells: insect cell
The assay can be described thus: CDK4/CyclinD1 enzymatic activity assay (TR-FRET). It counts as biochemical. The note with it: ATP 2 mM final, read-out: CDK4_D1 IC50. The procedure: CDK4/CyclinD1 Enzymatic Activity Assay
as §1, with “Bio-One). CDK4/Cyclin D1” for “Bio-One). CDK2/Cyclin E2”, “in IC5” for “in IC50”, “complex CDK4/Cyclin D1,” for “complex CDK2/Cyclin E2,”, “mixing CDK4/CyclinD1” for “mixing CDK2/CyclinE2”, “ULight-4E-BP1 (100” for “ULight-4E-BP1 (50”, “ATP (2” for “ATP (1”
Background: In TR-FRET formats the signal depends on donor and acceptor labels being close together.

The subject of a further assay is OVCAR3 p-RB. The assay can be described thus: pRB ICW assay in OVCAR3 cells. It counts as cell-based. Conditions: Homo sapiens, OVCAR-3, incubated with compound for 2 hours. How it is done:
pRB ICW Assay in OVCAR3 Cells
OVCAR3 cells were maintained in RPMI (Corning, Catalog #: 10-040-CV) supplemented with 10% v/v FBS (Gibco, Catalog #: 26140-079), 1% v/v Penicillin Streptomycin (Gibco, Catalog #15140-122.) OVCAR3 cells grown at log phase were trypsinized, counted, and resuspended in fresh medium to reach a final density of 6.7e4 cells/mL and 75 μL of culture were dispensed into a 384-well plate (Falcon, cat #353962) using Multidrop Combi dispenser (Thermo Scientific). The next day, compounds were dispensed as a 9-point, ½ log serial dilution using a Tecan digital dispenser (D300e), and cells were incubated with compound for 2 hours in a humidified incubator at 37° C. A reference compound at a final concentration of 10 μM was used as a control for maximum inhibition. Each compound was tested in duplicates in each experiment. At the end of the incubation, 25 μL of 16% paraformaldehyde (Electron Microscopy, cat #15710) was slowly added to each well and the plate was incubated at room temperature (RT) for 30 minutes to fix cells. Cells were then permeabilized by incubating with 50 μL/well of wash buffer (lx PBS with 0.1% Triton X-100) 5×5 minutes, followed by 1 hour blocking with 30 μL/well of Odyssey blocking buffer (Li-COR, cat #927-40000), all at RT. Anti-phosphor RB antibody (Cell signaling 8516S) was diluted 1:1000 in Odyssey blocking buffer and 20 μL was added to all wells and incubated overnight in 4° C. with gently rocking. The next day, cells were washed 5×5 min with 50 μL/well of wash buffer, followed with 1 hour incubation with secondary antibody and DRAQ5 diluted in Odyssey blocking buffer (1:500 dilution for secondary antibody and 1:2000 dilution for DRAQ5), 5×5 min washes, and one last wash with water. Plates were dried in 37° C. oven for 5 min and scanned using Li-COR Odyssey CLx imaging system to acquire intensities at 700 and 800 nm channels.

A word on the IC50: it is the point on the concentration scale where inhibition reaches its midpoint.

Where only a bound is given, the exact number is not on record here.

T1 sequence (P11802 whole entry): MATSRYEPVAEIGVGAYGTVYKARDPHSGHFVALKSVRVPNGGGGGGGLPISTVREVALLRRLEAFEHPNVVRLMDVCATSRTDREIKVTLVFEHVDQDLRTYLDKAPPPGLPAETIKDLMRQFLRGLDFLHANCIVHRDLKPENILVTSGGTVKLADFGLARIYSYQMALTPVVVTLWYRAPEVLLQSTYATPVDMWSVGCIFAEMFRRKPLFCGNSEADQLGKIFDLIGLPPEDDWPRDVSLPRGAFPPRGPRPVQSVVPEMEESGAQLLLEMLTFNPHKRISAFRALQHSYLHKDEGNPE
T1 sequence (P24385 whole entry partner): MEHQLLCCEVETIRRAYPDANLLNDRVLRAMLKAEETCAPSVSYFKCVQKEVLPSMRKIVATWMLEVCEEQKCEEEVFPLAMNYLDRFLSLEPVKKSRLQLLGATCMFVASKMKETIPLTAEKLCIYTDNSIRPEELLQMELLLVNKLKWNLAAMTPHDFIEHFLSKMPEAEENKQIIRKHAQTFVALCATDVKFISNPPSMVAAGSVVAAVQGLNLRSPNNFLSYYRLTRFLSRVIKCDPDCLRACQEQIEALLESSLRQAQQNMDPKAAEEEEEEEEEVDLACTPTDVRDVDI

`CC(C)Oc1ncc(-c2nc(NC3CCN(S(C)(=O)=O)CC3)ncc2C(F)(F)F)s1` [Example 25, N-(1-Methylsulfonylpiperidin-4-yl)-4-(2-propan-2-yloxy-1,3-thiazol-5-yl)-5-(trifluoromethyl)pyrimidin-2-amine]: the values for the IC50 on CDK2/Cyclin E2, at CDK4/Cyclin D1 and in the assay with OVCAR3 p-RB were ≤ 100 nM, ≤ 100 nM and 100 to 1000 nM, respectively.

In the case of `CS(=O)(=O)N1CCC(Nc2ncc(C(F)(F)F)c(-c3cnc(Cl)s3)n2)CC1` [Example 26, 4-(2-chlorothiazol-5-yl)-N-(1-(methylsulfonyl)piperidin-4-yl)-5-(trifluoromethyl) pyrimidin-2-amine], the IC50 at CDK2/Cyclin E2 is ≤ 100 nM; at CDK4/Cyclin D1 it was 100 to 1000 nM; in the assay with OVCAR3 p-RB, 100 to 1000 nM.

Consider `CS(=O)(=O)N1CCC(Nc2ncc(C(F)(F)F)c(-c3cnc(OC4CCCC4)s3)n2)CC1` [Example 27, 4-(2-(cyclopentyloxy)thiazol-5-yl)-N-(1-(methylsulfonyl)piperidin-4-yl)-5-(trifluoromethyl)pyrimidin-2-amine], for which the IC50 is ≤ 100 nM at CDK2/Cyclin E2, ≤ 100 nM on CDK4/Cyclin D1 and > 1000 nM in the assay on OVCAR3 p-RB.

In the case of `CNc1ncc(-c2nc(NC3CCN(S(C)(=O)=O)CC3)ncc2C(F)(F)F)s1` [Example 28, N-methyl-5-[2-[(1-methylsulfonylpiperidin-4-yl)amino]-5-(trifluoromethyl)pyrimidin-4-yl]-1,3-thiazol-2-amine], the IC50 at CDK2/Cyclin E2, at CDK4/Cyclin D1 and in the assay on OVCAR3 p-RB was ≤ 100 nM each time.

`CN(C)c1ncc(-c2nc(NC3CCN(S(C)(=O)=O)CC3)ncc2C(F)(F)F)s1` [Example 29, N,N-dimethyl-5-[2-[(1-methylsulfonylpiperidin-4-yl)amino]-5-(trifluoromethyl)pyrimidin-4-yl]-1,3-thiazol-2-amine]: the IC50 on CDK2/Cyclin E2 is ≤ 100 nM; on CDK4/Cyclin D1 it was ≤ 100 nM; in the assay on OVCAR3 p-RB, 100 to 1000 nM.

For the compound `CC(O)C(C)Nc1ncc(-c2nc(NC3CCN(S(C)(=O)=O)CC3)ncc2C(F)(F)F)s1` (stereo not drawn) [Example 30, 3-[[5-[2-[(1-methylsulfonylpiperidin-4-yl)amino]-5-(trifluoromethyl)pyrimidin-4-yl]-1,3-thiazol-2-yl]amino]butan-2-ol], the IC50 on CDK2/Cyclin E2, on CDK4/Cyclin D1 and with OVCAR3 p-RB was ≤ 100 nM each time.

Regarding `CS(=O)(=O)N1CCC(Nc2ncc(C(F)(F)F)c(-c3cnc(NCCO)s3)n2)CC1` [Example 31, 2-[[5-[2-[(1-methylsulfonylpiperidin-4-yl)amino]-5-(trifluoromethyl)pyrimidin-4-yl]-1,3-thiazol-2-yl]amino]ethanol], the results for the IC50 at CDK2/Cyclin E2, at CDK4/Cyclin D1 and in the assay with OVCAR3 p-RB were ≤ 100 nM, ≤ 100 nM and 100 to 1000 nM, respectively.

In the case of `CCNc1ncc(-c2nc(NC3CCN(S(C)(=O)=O)CC3)ncc2C(F)(F)F)s1` [Example 32, N-ethyl-5-[2-[(1-methylsulfonylpiperidin-4-yl)amino]-5-(trifluoromethyl)pyrimidin-4-yl]-1,3-thiazol-2-amine], the figures for the half-maximal inhibitory concentration (IC50) at CDK2/Cyclin E2, on CDK4/Cyclin D1 and in the assay on OVCAR3 p-RB were ≤ 100 nM, ≤ 100 nM and 100 to 1000 nM, respectively.

Consider `CN(c1ncc(-c2nc(NC3CCN(S(C)(=O)=O)CC3)ncc2C(F)(F)F)s1)C1CCCC1` [Example 33, N-cyclopentyl-N-methyl-5-(2-((1-(methylsulfonyl)piperidin-4-yl)amino)-5-(trifluoromethyl)pyrimidin-4-yl)thiazol-2-amine], for which the values for the half-maximal inhibitory concentration (IC50) at CDK2/Cyclin E2, on CDK4/Cyclin D1 and in the assay on OVCAR3 p-RB were ≤ 100 nM, ≤ 100 nM and > 1000 nM, respectively.

`CN(c1ncc(-c2nc(NC3CCN(S(C)(=O)=O)CC3)ncc2C(F)(F)F)s1)[C@@H]1CCC[C@H]1O` [Example 34, (1R,2R)-2-(methyl(5-(2-((1-(methylsulfonyl)piperidin-4-yl)amino)-5-(trifluoromethyl)pyrimidin-4-yl)thiazol-2-yl)amino)cyclopentan-1-ol]: the IC50 on CDK2/Cyclin E2 is ≤ 100 nM; at CDK4/Cyclin D1, ≤ 100 nM; with OVCAR3 p-RB, 100 to 1000 nM.

With `CN(CCO)c1ncc(-c2nc(NC3CCN(S(C)(=O)=O)CC3)ncc2C(F)(F)F)s1` [Example 35, 2-(methyl(5-(2-((1-(methylsulfonyl)piperidin-4-yl)amino)-5-(trifluoromethyl)pyrimidin-4-yl)thiazol-2-yl)amino)ethan-1-ol], the values for the IC50 on CDK2/Cyclin E2, at CDK4/Cyclin D1 and in the assay with OVCAR3 p-RB were ≤ 100 nM, ≤ 100 nM and 100 to 1000 nM, respectively.

In the case of `CS(=O)(=O)N1CCC(Nc2ncc(C(F)(F)F)c(-c3cnc(NC4CC4)s3)n2)CC1` [Example 36, N-Cyclopropyl-5-[2-[(1-methylsulfonylpiperidin-4-yl)amino]-5-(trifluoromethyl)pyrimidin-4-yl]-1,3-thiazol-2-amine], the figures for the IC50 on CDK2/Cyclin E2, on CDK4/Cyclin D1 and in the assay on OVCAR3 p-RB were ≤ 100 nM, ≤ 100 nM and 100 to 1000 nM, respectively.

`C[C@@]1(O)CCC[C@H]1Nc1ncc(-c2nc(NC3CCN(S(C)(=O)=O)CC3)ncc2C(F)(F)F)s1` [Example 37, (1R,2R)-1-Methyl-2-[[5-[2-[(1-methylsulfonylpiperidin-4-yl)amino]-5-(trifluoromethyl)pyrimidin-4-yl]-1,3-thiazol-2-yl]amino]cyclopentan-1-ol]: the IC50 is ≤ 100 nM at CDK2/Cyclin E2, ≤ 100 nM at CDK4/Cyclin D1 and 100 to 1000 nM in the assay on OVCAR3 p-RB.

Regarding `CS(=O)(=O)N1CCC(Nc2ncc(C(F)(F)F)c(-c3cnc(NC4COC4)s3)n2)CC1` [Example 38, 5-[2-[(1-Methylsulfonylpiperidin-4-yl)amino]-5-(trifluoromethyl)pyrimidin-4-yl]-N-(oxetan-3-yl)-1,3-thiazol-2-amine], the IC50 on CDK2/Cyclin E2 was ≤ 100 nM; on CDK4/Cyclin D1 it was ≤ 100 nM; in the assay with OVCAR3 p-RB, 100 to 1000 nM.

Regarding `[2H]C([2H])([2H])Nc1ncc(-c2nc(NC3CCN(S(C)(=O)=O)CC3)ncc2C(F)(F)F)s1` [Example 39, 5-[2-[(1-Methylsulfonylpiperidin-4-yl)amino]-5-(trifluoromethyl)pyrimidin-4-yl]-N-(trideuteriomethyl)-1,3-thiazol-2-amine], the results for the IC50 on CDK2/Cyclin E2, on CDK4/Cyclin D1 and in the assay with OVCAR3 p-RB were ≤ 100 nM, ≤ 100 nM and 100 to 1000 nM, respectively.

With `CS(=O)(=O)N1CCC(Nc2ncc(C(F)(F)F)c(-c3cnc(NCCF)s3)n2)CC1` [Example 40, N-(2-Fluoroethyl)-5-[2-[(1-methylsulfonylpiperidin-4-yl)amino]-5-(trifluoromethyl)pyrimidin-4-yl]-1,3-thiazol-2-amine], the IC50 at CDK2/Cyclin E2 was ≤ 100 nM; at CDK4/Cyclin D1, ≤ 100 nM; in the assay with OVCAR3 p-RB, 100 to 1000 nM.

The values above are taken from US20240018136A1, “CDK Inhibitors And Their Use As Pharmaceuticals” (Prelude Therapeutics, Incorporated, priority 2022, published 2024).
